Assay results from DBAASP.
Values after ≈ are worked out from the molar mass of the structure shown.

Key:
Test in all cases: ≥ marks a high value that may be exact or a test limit, other limits are often not marked, values filed in µg/mL are converted to µM
[1] = tested on: Acinetobacter baumannii ATCC 19606
[2] = tested on: Pseudomonas aeruginosa
[3] = tested on: Escherichia coli ATCC 25922
[4] = tested on: Staphylococcus aureus MR
[5] = tested on: Pseudomonas aeruginosa ATCC 27853
[6] = tested on: Escherichia coli
[7] = tested on: Klebsiella pneumoniae ATCC 13883
[8] = tested on: Acinetobacter baumannii
[9] = tested on: Klebsiella pneumoniae
[10] = tested on: Staphylococcus aureus ATCC 29213
[11] = tested on: Staphylococcus aureus
[12] = tested on: Escherichia coli W160-37
[13] = tested on: Pseudomonas aeruginosa H1001
[14] = tested on: Staphylococcus aureus ATCC 6538P
[15] = tested on: Escherichia coli JM109
[16] = tested on: Micrococcus luteus ATCC 4698

Work on `CC[C@H](C)[C@H](NC(=O)CN)C(=O)N[C@@H](CCCCN)C(=O)N[C@@H](CCCCN)C(=O)N[C@@H](Cc1c[nH]c2ccccc12)C(=O)N[C@H](C(=O)N[C@@H](CCCCN)C(=O)NCC(=O)N[C@H](C(=O)N[C@@H](C)C(=O)N[C@@H](CCCCN)C(=O)NCC(=O)N[C@H](C(=O)N[C@@H](C)C(=O)N[C@@H](CCCCN)C(=O)N[C@@H](CC(=O)O)C(=O)N[C@@H](CC(C)C)C(=O)N[C@@H](C)C(=O)N[C@@H](CCCCN)C(=O)N[C@@H](CCCCN)C(=O)N[C@H](C(=O)N[C@@H](CC(C)C)C(N)=O)[C@@H](C)CC)C(C)C)C(C)C)C(C)C` [GIKKWVKGVAKGVAKDLAKKIL] yielded an MIC [1] of 0.707 µM (≈ 1.66 µg/mL), an MIC [2] of 2.83 µM (≈ 6.65 µg/mL) and an MIC [3] of 0.177 µM (≈ 0.415 µg/mL). For the same compound, the MIC [4] was 4 µM (≈ 9.4 µg/mL), the MIC [5] was 2 µM (≈ 4.7 µg/mL) and the MIC [6] was 0.25 µM (≈ 0.587 µg/mL). For the same compound, the MIC [7] was 0.707 µM (≈ 1.66 µg/mL), the MIC [8] was 0.707 µM (≈ 1.66 µg/mL) and the MIC [9] was 2.83 µM (≈ 6.65 µg/mL). The MIC [10] was 0.354 µM (≈ 0.831 µg/mL) and the MIC [11] was 1 µM (≈ 2.35 µg/mL).

In the case of `CC[C@H](C)[C@H](N)C(=O)N[C@H](C(=O)N[C@@H](CO)C(=O)N[C@H](C(=O)N[C@H](C(=O)NCC(=O)N[C@@H](CC(=O)O)C(=O)N[C@@H](CC(C)C)C(=O)N[C@H](C(=O)N[C@@H](CCCCN)C(=O)N[C@@H](Cc1c[nH]c2ccccc12)C(=O)N[C@H](C(=O)N[C@H](C(=O)N[C@@H](CCCCN)C(=O)N[C@H](C(=O)N[C@H](C(=O)O)C(C)C)[C@@H](C)O)[C@@H](C)CC)[C@@H](C)CC)C(C)C)[C@@H](C)CC)[C@@H](C)O)[C@@H](C)CC` [IISTIGDLVKWIIKTV], the MIC [12] is reported as ≥ 35 µM.

For `CC[C@H](C)[C@H](N)C(=O)N[C@H](C(=O)N[C@@H](CO)C(=O)N[C@H](C(=O)N[C@H](C(=O)NCC(=O)N[C@@H](CCCCN)C(=O)N[C@@H](CC(C)C)C(=O)N[C@H](C(=O)N[C@@H](CCCCN)C(=O)N[C@@H](Cc1c[nH]c2ccccc12)C(=O)N[C@H](C(=O)N[C@H](C(=O)N[C@@H](CCCCN)C(=O)N[C@H](C(=O)N[C@H](C(=O)O)C(C)C)[C@@H](C)O)[C@@H](C)CC)[C@@H](C)CC)C(C)C)[C@@H](C)CC)[C@@H](C)O)[C@@H](C)CC` [IISTIGKLVKWIIKTV], the MIC [12] was 3 µM (≈ 5.44 µg/mL) and the MIC [11] was 3.46 µM (≈ 6.28 µg/mL).

`CC[C@H](C)[C@H](NC(=O)[C@H](CCSC)NC(=O)[C@H](Cc1c[nH]c2ccccc12)NC(=O)[C@H](Cc1c[nH]c2ccccc12)NC(=O)[C@H](CC(C)C)NC(=O)[C@@H](N)CCCCN)C(=O)N[C@@H](CCCN=C(N)N)C(=O)N[C@@H](CCCN=C(N)N)C(=O)N[C@@H](Cc1c[nH]c2ccccc12)C(=O)O` [KLWWMIRRW] was tested, and the MIC [13] was 5.82 µM (≈ 8 µg/mL).

For `CC[C@H](C)[C@H](NC(=O)[C@H](C)NC(=O)[C@H](CC(C)C)NC(=O)[C@H](CS)NC(=O)[C@H](Cc1cnc[nH]1)NC(=O)[C@H](C)NC(=O)[C@H](C)NC(=O)[C@H](CS)NC(=O)[C@@H](N)CC(C)C)C(=O)N[C@@H](CC(C)C)C(=O)N[C@@H](CCCN=C(N)N)C(=O)N[C@@H](CCCN=C(N)N)C(N)=O` [LCAAHCLAILRR], the MIC [14] was 7.46 µM, the MIC [15] was 17.9 µM and the MIC [11] was 47.8 µM.

`CC(C)C[C@@H]1NC(=O)[C@H](CCCN=C(N)N)NC(=O)[C@H](Cc2cnc[nH]2)NC(=O)[C@H](Cc2c[nH]c3ccccc23)NC(=O)CNC(=O)CNC(=O)[C@@H](NC(=O)[C@H](Cc2ccc(O)cc2)NC(=O)CNC(=O)CNC(=O)[C@@H](N)CO)CSSC[C@@H](C(=O)O)NC(=O)[C@H](CCCN=C(N)N)NC1=O` [SGGYCGGWHRLRC] showed an MIC [16] of 17 µM (≈ 24.6 µg/mL).

`C[C@@H](O)[C@H](NC(=O)[C@@H]1CSSC[C@H](NC(=O)[C@H](Cc2ccc(O)cc2)NC(=O)CNC(=O)CNC(=O)[C@@H](N)CO)C(=O)NCC(=O)NCC(=O)N[C@@H](Cc2c[nH]c3ccccc23)C(=O)N[C@@H](CCCCN)C(=O)N[C@@H](CCCN=C(N)N)C(=O)N[C@@H](CCCCN)C(=O)N[C@@H](CCCN=C(N)N)C(=O)N1)C(=O)N[C@@H](CO)C(=O)N[C@@H](Cc1ccc(O)cc1)C(=O)N[C@@H](CCCN=C(N)N)C(=O)N[C@@H](CO)C(=O)NCC(=O)O` [SGGYCGGWKRKRCTSYRSG] gave an MIC [16] of 12 µM (≈ 25.3 µg/mL).

`CC[C@H](C)[C@H](NC(=O)[C@H](CCCN=C(N)N)NC(=O)[C@H](CCCN=C(N)N)NC(=O)[C@@H]1CCCN1C(=O)[C@@H]1CCCN1C(=O)[C@H](CCCN=C(N)N)NC(=O)[C@@H]1CCCN1C(=O)[C@H](CCCN=C(N)N)NC(=O)[C@@H]1CCCN1C(=O)[C@H](CC(C)C)NC(=O)[C@H](Cc1ccc(O)cc1)NC(=O)[C@@H]1CCCN1C(=O)[C@@H]1CCCN1C(=O)[C@H](CCCCN)NC(=O)[C@H](CCCN=C(N)N)NC(=O)[C@@H](N)C(C)C)C(=O)N[C@@H](Cc1ccc(O)cc1)C(=O)N[C@@H](CC(N)=O)C(=O)N[C@@H](CCCN=C(N)N)C(=O)NCC(=O)O` [VRKPPYLPRPRPPRRIYNRG] showed an MIC [13] of 0.0362 µM (≈ 0.0901 µg/mL).
